For the assay, the target named is T1, Fascin1 (Homo sapiens, UniProt Q16658).
T1 construct: gene FSCN1; full-length human Fascin1; in-house protein from pGEX-6P-2A (N-terminal GST, 3C site) in E. coli BL21-gold(DE3), GST cleaved with PreScission
The experiment in a line: intrinsic fluorescence titration. It counts as binding.

`Cc1nnc(C(=O)NC(C)(C)c2nc(C(=O)NCc3ccc(F)cc3)c(O)c(=O)n2C)o1` [raltegravir] came in with an equilibrium dissociation constant (Kd) of 180 ± 10 µM.

By Kd is commonly meant a measure of binding affinity in units of concentration. Lower therefore signals tighter binding.
